The subject of this assay is Aβ42. The assay is described as follows: In vitro cell screening assay in H4 cells expressing human APP751: Aβ42 by sandwich ELISA. Conditions: compounds 0.003-10 μM, incubated overnight (16-18 h), sandwich ELISA of supernatant. Format: cell-based. The essentials:
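H4 neuroglioma cells stably expressing wild-type human APP751, switched to Pro293 medium and treated with compounds (0.003-10 μM, 0.33% DMSO) for 16-18 h at 37 °C. Supernatant Aβ42 quantified by sandwich ELISA (C-terminal capture, 4G8-HRP detection, A450); EC50 by sigmoidal fit normalized to DMSO and DAPT controls.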
Turning to `COc1nc(C2=NOCC(C3CC(F)(F)C3)N2)ccc1-n1cnc(C)c1` (single isomer, unassigned; (-)) [Example 180A, (−)-5-(3,3-difluorocyclobutyl)-3-(6-methoxy-5-(4-methyl-1H-imidazol-1-yl)pyridin-2-yl)-5,6-dihydro-4H-1,2,4-oxadiazine], the half-maximal effective concentration (EC50) was greater than 3000 nM.
As for `COc1nc(C2=NOCC(c3ccc4ncsc4c3)N2)ccc1-n1cnc(C)c1` (single isomer, unassigned; (-)) [Example 183A, (−)-5-(benzo [d]thiazol-6-yl)-3-(6-methoxy-5-(4-methyl-1H-imidazol-1-yl)pyridin-2-yl)-5,6-dihydro-4H-1,2,4-oxadiazine], a half-maximal response (EC50) required 1760 nM.
Then `COc1nc(C2=NOCC(c3cc4ccccc4o3)N2)ccc1-n1cnc(C)c1` (single isomer, unassigned; (-)) [Example 186A, (−)-5-(benzofuran-2-yl)-3-(6-methoxy-5-(4-methyl-1H-imidazol-1-yl)pyridin-2-yl)-5,6-dihydro-4H-1,2,4-oxadiazine], with 1170 nM; and `COc1nc(C2=NOCC(c3cn(C)c4ccccc34)N2)ccc1-n1cnc(C)c1` (single isomer, unassigned; (-)) [Example 189B, (−)-3-(6-methoxy-5-(4-methyl-1H-imidazol-1-yl)pyridin-2-yl)-5-(1-methyl-1H-indol-3-yl)-5,6-dihydro-4H-1,2,4-oxadiazine], with 252 nM.
With `COc1nc(C2=NOCC(c3cn(C)c4ccc(F)cc34)N2)ccc1-n1cnc(C)c1` (single isomer, unassigned; (-)) [Example 190A, (−)-5-(5-fluoro-1-methyl-1H-indol-3-yl)-3-(6-methoxy-5-(4-methyl-1H-imidazol-1-yl)pyridin-2-yl)-5,6-dihydro-4H-1,2,4-oxadiazine] the figure was 287 nM; with `COc1nc(C2=NOCC(c3cn(C)c4cccc(F)c34)N2)ccc1-n1cnc(C)c1` (single isomer, unassigned; (-)) [Example 191B, (−)-5-(4-fluoro-1-methyl-1H-indol-3-yl)-3-(6-methoxy-5-(4-methyl-1H-imidazol-1-yl)pyridin-2-yl)-5,6-dihydro-4H-1,2,4-oxadiazine], 83.2 nM.
Compound `COc1nc(C2=NOCC(c3cn(C)c4cc(F)ccc34)N2)ccc1-n1cnc(C)c1` (single isomer, unassigned; (-)) [Example 192A, (−)-5-(6-fluoro-1-methyl-1H-indol-3-yl)-3-(6-methoxy-5-(4-methyl-1H-imidazol-1-yl)pyridin-2-yl)-5,6-dihydro-4H-1,2,4-oxadiazine] gave an EC50 of 170 nM.
Compound `COc1nc(C2=NOCC(c3cn(C)c4ccc(Cl)cc34)N2)ccc1-n1cnc(C)c1` (single isomer, unassigned; (-)) [Example 193A, (−)-5-(5-chloro-1-methyl-1H-indol-3-yl)-3-(6-methoxy-5-(4-methyl-1H-imidazol-1-yl)pyridin-2-yl)-5,6-dihydro-4H-1,2,4-oxadiazine] showed an EC50 of 71 nM.
In turn, `COc1nc(C2=NOCC(c3cn(C)c4cc(Cl)ccc34)N2)ccc1-n1cnc(C)c1` (single isomer, unassigned; (-)) [Example 194B, (−)-5-(6-chloro-1-methyl-1H-indol-3-yl)-3-(6-methoxy-5-(4-methyl-1H-imidazol-1-yl)pyridin-2-yl)-5,6-dihydro-4H-1,2,4-oxadiazine] came in with an EC50 of 147 nM. Compared with the last compound, the EC50 is about 2.1-fold higher.
Then `COc1nc(C2=NOCC(c3cn(C)c4ncccc34)N2)ccc1-n1cnc(C)c1` (single isomer, unassigned; (-)) [Example 195A, (−)-3-(6-methoxy-5-(4-methyl-1H-imidazol-1-yl)pyridin-2-yl)-5-(1-methyl-1H-pyrrolo [2,3-b]pyridin-3-yl)-5,6-dihydro-4H-1,2,4-oxadiazine], with 2110 nM; and `COc1nc(C2=NOCC(c3cn(C(C)C)c4cccc(F)c34)N2)ccc1-n1cnc(C)c1` (single isomer, unassigned; (-)) [Example 196B, (−)-5-(4-fluoro-1-isopropyl-1H-indol-3-yl)-3-(6-methoxy-5-(4-methyl-1H-imidazol-1-yl)pyridin-2-yl)-5,6-dihydro-4H-1,2,4-oxadiazine], with 220 nM.
With `COc1nc(C2=NOCC(c3cn(C)c4cc(C(F)(F)F)ccc34)N2)ccc1-n1cnc(C)c1` (single isomer, unassigned; (-)) [Example 197B, (−)-3-(6-methoxy-5-(4-methyl-1H-imidazol-1-yl)pyridin-2-yl)-5-(1-methyl-6-(trifluoromethyl)-1H-indol-3-yl)-5,6-dihydro-4H-1,2,4-oxadiazine] the figure was 90.5 nM.
Then `COc1nc(C2=NOCC(c3cn(C)c4ccccc34)N2C)ccc1-n1cnc(C)c1` (single isomer, unassigned; (-)) [Example 200B, (−)-3-(6-methoxy-5-(4-methyl-1H-imidazol-1-yl)pyridin-2-yl)-4-methyl-5-(1-methyl-1H-indol-3-yl)-5,6-dihydro-4H-1,2,4-oxadiazine], with 1290 nM.
In turn, `COc1nc(C2=NOCC(c3nc4ccccc4o3)N2)ccc1-n1cnc(C)c1` (single isomer, unassigned; (-)) [Example 203A, (−)-2-(3-(6-methoxy-5-(4-methyl-1H-imidazol-1-yl)pyridin-2-yl)-5,6-dihydro-4H-1,2,4-oxadiazin-5-yl)benzo[d]oxazole] showed a 50% effective concentration (EC50) of 2320 nM.
In turn, `COc1nc(C2=NOCC(c3cc4ccccc4n3C)N2)ccc1-n1cnc(C)c1` (single isomer, unassigned; (-)) [Example 205A, (−)-3-(6-methoxy-5-(4-methyl-1H-imidazol-1-yl)pyridin-2-yl)-5-(1-methyl-1H-indol-2-yl)-5,6-dihydro-4H-1,2,4-oxadiazine] showed a 50% effective concentration (EC50) of 1730 nM.
Take `COc1nc(C2=NOCC(c3cn(C)c4ncc(C(F)(F)F)cc34)N2)ccc1-n1cnc(C)c1` (single isomer, unassigned; (-)) [Example 206A, (−)-3-(6-methoxy-5-(4-methyl-1H-imidazol-1-yl)pyridin-2-yl)-5-(1-methyl-5-(trifluoromethyl)-1H-pyrrolo [2,3-b]pyridin-3-yl)-5,6-dihydro-4H-1,2,4-oxadiazine]: the EC50 worked out at 800 nM.
With `COc1nc(C2=NOCC(c3nc4ccccc4s3)N2)ccc1-n1cnc(C)c1` (single isomer, unassigned; (-)) [Example 208A, (−)-5-(benzo[d]thiazol-2-yl)-3-(6-methoxy-5-(4-methyl-1H-imidazol-1-yl)pyridin-2-yl)-5,6-dihydro-4H-1,2,4-oxadiazine] the figure was greater than 3000 nM.
Then `COc1cc(C2=NOCC(c3nc4cccc(C)c4o3)N2C)ccc1-n1cnc(C)c1` (single isomer, unassigned; (-)) [Example 212B, (−)-2-(3-(3-methoxy-4-(4-methyl-1H-imidazol-1-yl)phenyl)-4-methyl-5,6-dihydro-4H-1,2,4-oxadiazin-5-yl)-7-methylbenzo[d]oxazole], with greater than 3000 nM; and `COc1nc(C2=NOCC(c3cccc(S(C)(=O)=O)c3)N2)ccc1-n1cnc(C)c1` (single isomer, unassigned; (-)) [Example 214A, (−)-3-(6-methoxy-5-(4-methyl-1H-imidazol-1-yl)pyridin-2-yl)-5-(3-(methylsulfonyl)phenyl)-5,6-dihydro-4H-1,2,4-oxadiazine], with greater than 3000 nM.

For the origin of these results see patent US9802927B2, “Oxadiazine compounds and methods of use thereof” (Denali Therapeutics, Inc., priority 2015, dated 2017).
